Like-named read-outs stand apart in the source and are kept apart here.
How the values were obtained:
[1] = test system: P. falciparum V1/3; assay: In vitro P. falciparum blood-stage assay, strain V1/3; assay type: cell-based; conditions: Plasmodium falciparum
Procedure: (§1) Strains of Plasmodium falciparum (Dd2, 3D7, D6, K1, NF54, V1/3, HB3, 7G8, FCB, TM90C2B) were obtained from Malaria Research and Reference Reagent Resource Center (MR4). P. falciparum isolates were maintained with O-positive human blood in an atmosphere of 93% N2, 4% CO2, 3% O2 at 37° C. in complete culturing medium (10.4 g/L RPMI 1640, 5.94 g/L HEPES, 5 g/L albumax II, 50 mg/L hypoxanthine, 2.1 g/L sodium bicarbonate, 10% human serum and 43 mg/L gentamicin). Parasites were cultured in medium until the parasitemia reached 3-8%. Parasitemia was determined by checking at least 500 red blood cells from a Giemsa-stained blood smear. For the compound screening, a parasite suspension at 2.0% parasitemia and 2.0% hematocrit was created with medium. 25 μl of medium was dispensed into 384-well, black, clear-bottom plates. 100 nl of compounds in DMSO was transferred into the assay plates along with control compound (mefloquine). Next, 25 μl of the parasite suspension in medium was dispensed into the assay plates such that the final parasitemia was 1% and the final hematocrit was 1%. The assay plates were incubated for 72 hours at 37° C. […] The assay plates were read with 505 dichroic mirrors with 485-nm excitation and 530-nm emission settings.

[2] = test system: P. berghei (ANKA GFP-luc) sporozoites; assay: In vivo P. berghei liver-stage assay; parameters: species or system CD-1 mice; conditions: orally at 50 mg/kg two hours after sporozoite inoculation
Procedure: CD-1 mice (n=4 per experimental group; female; 6-7-week-old; 20-24 g) were inoculated intravenously with 1×10^5 freshly isolated P. berghei(ANKA GFP-luc) sporozoites intravenously, and compounds were administered orally at 50 mg/kg two hours later. Bioluminescence signals from the transgenic parasites were monitored by the In vivo Imaging System (IVIS 100, Xenogen; Caliper Life Sciences). Animals with parasitemia exceeding 20% were euthanized.

[3] = test system: P. falciparum asexual erythocytic stage; assay: Erythrocytic stage, asexual (P. falciparum); assay type: cell-based; conditions: Plasmodium falciparum
Procedure: as §1

[4] = test system: P. falciparum HB3; assay: In vitro P. falciparum blood-stage assay, strain HB3; assay type: cell-based; conditions: Plasmodium falciparum
Procedure: as §1

[5] = test system: P. falciparum 3D7; assay: In vitro P. falciparum blood-stage assay, strain 3D7; assay type: cell-based; conditions: Plasmodium falciparum
Procedure: as §1

[6] = test system: P. falciparum FCB; assay: In vitro P. falciparum blood-stage assay, strain FCB; assay type: cell-based; conditions: Plasmodium falciparum
Procedure: as §1

[7] = test system: P. falciparum 7G8; assay: In vitro P. falciparum blood-stage assay, strain 7G8; assay type: cell-based; conditions: Plasmodium falciparum
Procedure: as §1

[8] = test system: P. falciparum D6; assay: In vitro P. falciparum blood-stage assay, strain D6; assay type: cell-based; conditions: Plasmodium falciparum
Procedure: as §1

[9] = test system: P. cynomolgi; assay: In vitro P. cynomolgi liver stage assay in primary rhesus monkey hepatocytes; assay type: cell-based; conditions: Plasmodium cynomolgi, Hepatocyte, in Macaca mulatta
Procedure: An in vitro P. cynomolgi liver stage assay was performed as described in Zeeman et al. Antimicrobial Agents and Chemotherapy, 2014, 58:1586-1595. 96-well plates are seeded with freshly isolated or thawed cryopreserved stocks of primary rhesus monkey hepatocytes one or two days before infection with 5×10^4 freshly dissected P. cynomolgisporozoites per well. After 2-3 h of sporozoite invasion into the hepatocytes, culture medium is exchanged for culture medium containing appropriate compound dilutions. Initially, compounds are tested in duplicate in 3 dilutions: 0.1, 1 and 10 μM. Plates are incubated for 6 days with medium exchange (including compound dilutions) every other day. Plates are fixed in methanol and parasites are stained with rabbit anti-PcyHSP70 antiserum in the presence of DAPI to stain the nuclei. Plates are automatically counted in a high-content imager (Operetta®) and small parasites (hypnozoites, s.f.) and large schizonts (I.f.) are recorded, as well as number of hepatocytes as a measure for cytotoxic effects of the compounds. Controls include uninfected hepatocytes, sporozoite infected wells without compound and infected wells with primaquine and atovaquone. When activity is recorded and reported, a more extensive dilution curve can be evaluated: a 7-point 3-fold dilution series from days 0-6.

[10] = test system: P. falciparum K1; assay: In vitro P. falciparum blood-stage assay, strain K1; assay type: cell-based; conditions: Plasmodium falciparum
Procedure: as §1

[11] = test system: P. falciparum NF54; assay: In vitro P. falciparum blood-stage assay, strain NF54; assay type: cell-based; conditions: Plasmodium falciparum
Procedure: as §1

COc1ccc2c3c([nH]c2c1)[C@H](CO)N(C(C)=O)CC31CCN(C(=O)Nc2ccccc2F)CC1 [Compound 15, (R)-2′-acetyl-N-(2-fluorophenyl)-1′-(hydroxymethyl)-7′-methoxy-1′,2′,3′,9′-tetrahydrospiro [piperidine-4,4′-pyrido[3,4-b]indole]-1-carboxamide]
IC50 [1]: 98 nM | Parasitemia of treated animals (untreated controls: systemic parasitemia by day four) [2]: remained parasite free | Inhibition of the liver stage of P. berghei in vivo (FIG. 1) ([2]; bioluminescence): inhibit the liver stage | IC50 [3]: 64 nM | IC50 [4]: 147 nM | IC50 [5]: 65 nM | IC50 [6]: 130 nM | IC50 [7]: 113 nM | IC50 [8]: 70 nM | IC50 ([9]; large schizonts (l.f.), read-out: IC50 exo-erythrocytic stage P. cynomolgi (l.f)): 832 nM | IC50 ([9]; small parasites (hypnozoites, s.f.), read-out: IC50 exo-erythrocytic stage P. cynomolgi (s.f)): 344 nM | IC50 [10]: 91 nM | IC50 [11]: 88 nM
